Data set [1] in a line: Drug level in Sprague-Dawley rat liver at 5 mg/kg, po measured 4 hrs post dose by LC/MS method. It counts as ADME, organism-based. Set-up: dose 5 mg/kg, route oral. The note with it: read-out: Drug uptake.
For data set [2], the target named is Genome polyprotein (Hepacivirus C, UniProt K7XJL6, A156V). As to the kind of experiment: Inhibition of HCV genotype 1b BK NS3/4A protease A156V mutant expressed in Escherichia coli incubated for 30 mins by time-resolved fluorescence assay. Set-up: species or system Hepatitis C virus (isolate BK).
Data set [3] deals with Genome polyprotein (Hepacivirus C, UniProt K7XJL6, A156T). As to the kind of experiment: Inhibition of HCV genotype 1b BK NS3/4A protease A156T mutant expressed in Escherichia coli incubated for 30 mins by time-resolved fluorescence assay. Set-up: species or system Hepatitis C virus (isolate BK).
Data set [4] addresses Hepatitis C virus serine protease, NS3/NS4A (Hepatitis C virus, UniProt A3EZI9+D2K2A8, R155K). As to the kind of experiment: Inhibition of HCV genotype 1b BK NS3/4A protease R155K mutant expressed in Escherichia coli incubated for 30 mins by time-resolved fluorescence assay. Set-up: species or system Hepatitis C virus (isolate BK).
The next data set relates to Hepatitis C virus. As to the kind of experiment: Antiviral activity against HCV genotype 1b Con1 infected in human Huh7 cells assessed as inhibition of viral replication in presence of 50% NHS by HCV bicistronic replicon assay. Format: functional, organism-based, Hepacivirus hominis. The settings on record: Con1, Huh-7. On the technique in general: A replicon is a self-replicating genome or part of one, used to study replication in cells.

Data set [5] in a line: Inhibition of HCV subtype 3a NS3/4A protease incubated for 30 mins by time-resolved fluorescence assay. Set-up: species or system Hepatitis C virus subtype 3a.
Data set [6] is described as follows: Inhibition of HCV genotype 1b BK NS3/4A protease expressed in Escherichia coli incubated for 30 mins by time-resolved fluorescence assay. The arrangement: species or system Hepatitis C virus (isolate BK).

In the case of `C=C[C@@H]1C[C@]1(NC(=O)[C@@H]1C[C@@H]2CN1C(=O)[C@H](C1CCCCC1)NC(=O)N1CC(C1)OCCC/C=C/c1cc3c(cc(OCC)nc3cc1OC)O2)C(=O)NS(=O)(=O)C1CC1`, the concentration at 4 h in data set [1] was found to be 4 µM. Moreover, the Ki is 6.1 nM at Genome polyprotein [2]; 0.2 nM on Genome polyprotein [3]; 0.2 nM in data set [4]; 0.9 nM in data set [5]; under 0.05 nM in data set [6]. In addition, the IC50 with Hepatitis C virus was found to be 64 nM.
Consider `C=C[C@@H]1C[C@]1(NC(=O)[C@@H]1C[C@@H]2CN1C(=O)[C@H](C1CCCCC1)NC(=O)N1CC[C@H](C1)OC/C=C/c1cc3c(cc(OCC)nc3cc1OC)O2)C(=O)NS(=O)(=O)C1CC1`, for which the Ki is 134 nM at Genome polyprotein [2]; 2.4 nM on Genome polyprotein [3]; 0.3 nM in data set [4]; 3.6 nM in data set [5]; under 0.05 nM in data set [6]. Further, the IC50 in the data set with Hepatitis C virus turned out to be 29 nM.
On to `C=C[C@@H]1C[C@]1(NC(=O)[C@@H]1C[C@@H]2CN1C(=O)[C@H](C1CCCC1)NC(=O)N1CC[C@@H](C1)OCCCCCc1cc3ccc(OC)cc3nc1O2)C(=O)NS(=O)(=O)C1CC1`, for which, in data set [1], the concentration at 4 h amounted to 12 µM. For the same compound, the Ki was 22 nM at Genome polyprotein [2]; 1.5 nM at Genome polyprotein [3]; 0.1 nM in data set [4]; 5.9 nM in data set [5]; under 0.05 nM in data set [6]. Besides, the IC50 in the data set with Hepatitis C virus was 31 nM.
In the case of `C=C[C@@H]1C[C@]1(NC(=O)[C@@H]1C[C@@H]2CN1C(=O)[C@H](C1CCCC1)NC(=O)N1CC(C1)OCCC/C=C/c1cc3ccc(OC)cc3nc1O2)C(=O)NS(=O)(=O)C1CC1`, the Ki is 28 nM at Genome polyprotein [3], 0.5 nM in data set [4], 38 nM in data set [5] and under 0.05 nM in data set [6].
For `C=C[C@@H]1C[C@]1(NC(=O)[C@@H]1C[C@@H]2CN1C(=O)[C@H](C1CCCCC1)NC(=O)N1CCO[C@H](CCCCc3cc4c(cc(OCC)nc4cc3OC)O2)C1)C(=O)NS(=O)(=O)C1CC1`, the Ki on Genome polyprotein [3] is 6.9 nM; in data set [4], 1 nM; in data set [5], 5.2 nM; in data set [6], under 0.05 nM. Besides, in the data set on Hepatitis C virus, the IC50 worked out at 9 nM.
For `C=C[C@@H]1C[C@]1(NC(=O)[C@@H]1C[C@@H]2CN1C(=O)[C@H](C1CCCC1)NC(=O)N(C)[C@@H]1CCC[C@H]1C/C=C/c1cc3c(cc(OCC)nc3cc1OC)O2)C(=O)NS(=O)(=O)C1CC1`, the concentration at 4 h in data set [1] amounted to 15.9 µM. Further, the Ki is 18 nM on Genome polyprotein [2]; 1.7 nM on Genome polyprotein [3]; 0.6 nM in data set [4]; 1.5 nM in data set [5]; under 0.05 nM in data set [6]. Moreover, in the data set with Hepatitis C virus, the IC50 came out at 25 nM.
In the case of `C=C[C@@H]1C[C@]1(NC(=O)[C@@H]1C[C@@H]2CN1C(=O)[C@H](C1CCCC1)NC(=O)O[C@@H]1CCC(CCCc3cc4c(cc(OCC)nc4cc3OC)O2)C1)C(=O)NS(=O)(=O)C1CC1` (mixture of isomers), the inhibition constant Ki at Genome polyprotein [2] is 46 nM; at Genome polyprotein [3], 4.6 nM; in data set [4] it was 2 nM; in data set [5], 5 nM; in data set [6], under 0.05 nM. In the data set with Hepatitis C virus, the IC50 worked out at 24 nM.
For `C=C[C@@H]1C[C@]1(NC(=O)[C@@H]1C[C@@H]2CN1C(=O)[C@H](C1CCCCC1)NC(=O)O[C@@H]1CCC[C@H]1C/C=C/c1cc3c(cc(OCC)nc3cc1OC)O2)C(=O)NS(=O)(=O)C1CC1`, the concentration at 4 h in data set [1] amounted to 37.1 µM. For the same compound, the Ki was 40 nM at Genome polyprotein [2]; 2 nM on Genome polyprotein [3]; 1.3 nM in data set [4]; 3.1 nM in data set [5]; under 0.05 nM in data set [6]. The IC50 with Hepatitis C virus worked out at 55 nM.
For the compound `C=C[C@@H]1C[C@]1(NC(=O)[C@@H]1C[C@@H]2CN1C(=O)[C@H](C1CCCCC1)NC(=O)N1CC[C@@H](C1)OC/C=C/c1cc3c(cc(OCC)nc3cc1OC)O2)C(=O)NS(=O)(=O)C1CC1`, in data set [1], the concentration at 4 h was found to be 4.8 µM. Moreover, the Ki at Genome polyprotein [2] was 6.8 nM; on Genome polyprotein [3], 0.4 nM; in data set [4], 0.2 nM; in data set [5] it was 1.4 nM; in data set [6], under 0.05 nM. Further, the IC50 with Hepatitis C virus came to 43 nM.
Regarding `C=C[C@@H]1C[C@]1(NC(=O)[C@@H]1C[C@@H]2CN1C(=O)[C@H](C1CCCC1)NC(=O)O[C@@H]1CCC[C@@]1(C)C/C=C/c1cc3c(cc(OCC)nc3cc1OC)O2)C(=O)NS(=O)(=O)C1CC1`, the inhibitory constant (Ki) at Genome polyprotein [3] was 49 nM; in data set [4], 0.9 nM; in data set [5] it was 4.1 nM; in data set [6], under 0.05 nM. In the data set with Hepatitis C virus, the IC50 is 38 nM.
Turning to `C=C[C@@H]1C[C@]1(NC(=O)[C@@H]1C[C@@H]2CN1C(=O)[C@H](C1CCCC1)NC(=O)O[C@@H]1CCC[C@H]1CCC/C=C/c1cc3ccc(OC)cc3nc1O2)C(=O)NS(=O)(=O)C1CC1`, the concentration at 4 h in data set [1] came to 30.8 µM. Moreover, the Ki at Genome polyprotein [3] was 17 nM; in data set [4], 0.2 nM; in data set [5], 11.6 nM; in data set [6], under 0.05 nM. In the data set on Hepatitis C virus, the IC50 came to 58 nM.
Regarding `C=C[C@@H]1C[C@]1(NC(=O)[C@@H]1C[C@@H]2CN1C(=O)[C@H](C1CCCCC1)NC(=O)O[C@@H]1COC[C@H]1C/C=C/c1cc3c(cc(OCC)nc3cc1OC)O2)C(=O)NS(=O)(=O)C1CC1`, the concentration at 4 h in data set [1] was 0.3 µM. The Ki is 23 nM on Genome polyprotein [2]; 0.7 nM at Genome polyprotein [3]; 0.5 nM in data set [4]; 1.9 nM in data set [5]; under 0.05 nM in data set [6]. Further, the 50% inhibitory concentration (IC50) in the data set with Hepatitis C virus was determined as 18 nM.
`C=C[C@@H]1C[C@]1(NC(=O)[C@@H]1C[C@@H]2CN1C(=O)[C@H](C1CCCC1)NC(=O)O[C@@H]1CCC[C@H]1C/C=C/c1cc3c(cc(OCC)nc3cc1OC)O2)C(=O)NS(=O)(=O)C1CC1`: the concentration at 4 h in data set [1] was 10.2 µM. Moreover, the Ki on Genome polyprotein [2] is 15 nM; at Genome polyprotein [3], 0.8 nM; in data set [4], 0.5 nM; in data set [5], 4.6 nM; in data set [6] it was under 0.05 nM. Further, in the data set on Hepatitis C virus, the IC50 came to 17 nM.
Consider `C=C[C@@H]1C[C@]1(NC(=O)[C@@H]1C[C@@H]2CN1C(=O)[C@H](C1CCCC1)NC(=O)N1CC(OCC)(CCCCc3cc4c(cc(OCC)nc4cc3OC)O2)C1)C(=O)NS(=O)(=O)C1CC1`, for which the Ki is 7.1 nM on Genome polyprotein [3], 0.9 nM in data set [4], 1 nM in data set [5] and under 0.05 nM in data set [6]. For the same compound, the IC50 in the data set on Hepatitis C virus was found to be 18 nM.
Turning to `C=C[C@@H]1C[C@]1(NC(=O)[C@@H]1C[C@@H]2CN1C(=O)[C@H](C1CCCC1)NC(=O)O[C@@H]1COC[C@H]1CCC/C=C/c1cc3ccc(OC)cc3nc1O2)C(=O)NS(=O)(=O)C1CC1`, the Ki at Genome polyprotein [2] is 64 nM; at Genome polyprotein [3] it was 7.8 nM; in data set [4], 0.1 nM; in data set [5], 5.7 nM; in data set [6], under 0.05 nM. In the data set with Hepatitis C virus, the IC50 came to 5 nM.
Regarding `C=C[C@@H]1C[C@]1(NC(=O)[C@@H]1C[C@@H]2CN1C(=O)[C@H](C1CCCCC1)NC(=O)O[C@@H]1CCCC[C@H]1C/C=C/c1cc3c(cc(OCC)nc3cc1OC)O2)C(=O)NS(=O)(=O)C1CC1`, the Ki at Genome polyprotein [2] is 567 nM; at Genome polyprotein [3], 42 nM; in data set [4], 1.5 nM; in data set [5], 12.6 nM; in data set [6], under 0.05 nM. In addition, the IC50 with Hepatitis C virus amounted to 25 nM.
For the compound `C=C[C@@H]1C[C@]1(NC(=O)[C@@H]1C[C@@H]2CN1C(=O)[C@H](C1CCCC1)NC(=O)OC1CCC1C/C=C/c1cc3c(cc(OCC)nc3cc1OC)O2)C(=O)NS(=O)(=O)C1CC1` (mixture of isomers), the Ki on Genome polyprotein [3] was 52 nM; in data set [4], 2.2 nM; in data set [5] it was 18 nM; in data set [6], under 0.05 nM.
With `C=C[C@@H]1C[C@]1(NC(=O)[C@@H]1C[C@@H]2CN1C(=O)[C@H](C1CCCCC1)NC(=O)N1CCC(CC1)OCCC/C=C/c1cc3ccc(OC)cc3nc1O2)C(=O)NS(=O)(=O)C1CC1`, the Ki at Genome polyprotein [3] is 11 nM; in data set [4], 0.3 nM; in data set [5], 27 nM; in data set [6] it was under 0.05 nM.
Turning to `C=C[C@@H]1C[C@]1(NC(=O)[C@@H]1C[C@@H]2CN1C(=O)[C@H](C1CCCCC1)NC(=O)N1CCC[C@@H](C1)OCCCc1cc3c(cc(OCC)nc3cc1OC)O2)C(=O)NS(=O)(=O)C1CC1`, the concentration at 4 h in data set [1] stood at 4.4 µM. Moreover, the Ki on Genome polyprotein [2] is 46 nM; at Genome polyprotein [3] it was 1.9 nM; in data set [4], 1.2 nM; in data set [5], 2.3 nM; in data set [6], under 0.05 nM. For the same compound, the IC50 with Hepatitis C virus worked out at 23 nM.
Turning to `C=C[C@@H]1C[C@]1(NC(=O)[C@@H]1C[C@@H]2CN1C(=O)[C@H](C1CCCCC1)NC(=O)N1CCC(CC1)OCCC/C=C/c1cc3c(cc(OCC)nc3cc1OC)O2)C(=O)NS(=O)(=O)C1CC1`, the concentration at 4 h in data set [1] was 11 µM. Also, the inhibition constant (Ki) is 18 nM at Genome polyprotein [2]; 0.7 nM on Genome polyprotein [3]; 0.2 nM in data set [4]; 2.1 nM in data set [5]; under 0.05 nM in data set [6]. In addition, in the data set on Hepatitis C virus, the IC50 was 32 nM.
For the compound `C=C[C@@H]1C[C@]1(NC(=O)[C@@H]1C[C@@H]2CN1C(=O)[C@H](C1CCCC1)NC(=O)O[C@H]1C[C@H](C/C=C/c3cc4c(cc(OCC)nc4cc3OC)O2)C1)C(=O)NS(=O)(=O)C1CC1`, the Ki was 16 nM at Genome polyprotein [2]; 4.8 nM on Genome polyprotein [3]; 2.4 nM in data set [4]; 7.7 nM in data set [5]; under 0.05 nM in data set [6]. In the data set on Hepatitis C virus, the IC50 stood at 16 nM.

In general, Ki refers to a dissociation constant, usually derived from enzyme kinetics or from competition with a known ligand. Read a high Ki as weaker binding. What is called IC50 is the point on the concentration scale where inhibition reaches its midpoint.

These data come from ChEMBL document CHEMBL2202979, “Development of macrocyclic inhibitors of HCV NS3/4A protease with cyclic constrained P2-P4 linkers” (Bioorg Med Chem Lett, 2012).
